Measured values: patent US11654199B2 (BOLT BIOTHERAPEUTICS, INC., priority 2019, dated 2023)

Key:
human TLR7 = biological target: T1, human TLR7 (Homo sapiens, UniProt Q9NYK1); assay: HEK293 NFKB reporter assay, human TLR7; type: cell-based; conditions: HEK293 NFKB reporter cells expressing human TLR7; read-out: HEK293 hTLR7 EC50
T1 construct: host or cells: HEK293 reporter cells
T1 sequence (Q9NYK1 27-1049): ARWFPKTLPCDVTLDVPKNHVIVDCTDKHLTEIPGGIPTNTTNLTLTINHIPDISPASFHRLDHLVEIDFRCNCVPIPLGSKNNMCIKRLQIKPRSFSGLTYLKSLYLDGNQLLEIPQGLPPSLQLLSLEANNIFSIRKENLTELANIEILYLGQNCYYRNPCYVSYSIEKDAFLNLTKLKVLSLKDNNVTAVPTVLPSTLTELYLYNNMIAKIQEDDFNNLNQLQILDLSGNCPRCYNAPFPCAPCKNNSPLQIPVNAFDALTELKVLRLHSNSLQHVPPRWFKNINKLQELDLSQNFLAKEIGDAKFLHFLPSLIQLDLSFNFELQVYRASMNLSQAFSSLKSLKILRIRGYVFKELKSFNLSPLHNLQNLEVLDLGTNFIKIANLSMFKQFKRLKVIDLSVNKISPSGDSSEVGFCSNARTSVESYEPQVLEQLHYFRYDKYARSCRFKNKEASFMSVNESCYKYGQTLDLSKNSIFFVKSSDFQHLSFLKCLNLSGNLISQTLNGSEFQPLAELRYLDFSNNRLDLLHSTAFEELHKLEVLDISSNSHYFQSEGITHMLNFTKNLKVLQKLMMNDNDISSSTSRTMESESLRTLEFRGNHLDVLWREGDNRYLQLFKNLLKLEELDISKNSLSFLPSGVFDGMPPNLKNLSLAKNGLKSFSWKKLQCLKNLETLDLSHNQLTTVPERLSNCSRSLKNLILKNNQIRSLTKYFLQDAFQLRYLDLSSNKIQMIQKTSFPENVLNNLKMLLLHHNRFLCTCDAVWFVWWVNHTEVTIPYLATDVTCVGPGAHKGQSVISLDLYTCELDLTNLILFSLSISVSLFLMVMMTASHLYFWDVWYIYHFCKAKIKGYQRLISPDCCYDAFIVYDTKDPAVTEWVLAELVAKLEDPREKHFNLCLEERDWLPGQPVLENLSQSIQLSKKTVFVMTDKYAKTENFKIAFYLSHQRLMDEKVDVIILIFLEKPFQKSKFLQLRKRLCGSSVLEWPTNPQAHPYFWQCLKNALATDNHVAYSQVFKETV
Procedure: (§1) Each compound was synthesized, purified, and characterized by mass spectrometry and shown to have the mass indicated. Additional experimental procedures are found in the Examples. Activity against HEK293 NFKB reporter cells expressing human TLR7 or human TLR8 was measured according to Example 202.
(§2) HEK293 reporter cells expressing human TLR7 or human TLR8 were purchased from Invivogen and vendor protocols were followed for cellular propagation and experimentation. Briefly, cells were grown to 80-85% confluence at 5% CO2 in DMEM supplemented with 10% FBS, Zeocin, and Blasticidin. Cells were then seeded in 96-well flat plates at 4×10^4 cells/well with substrate containing HEK detection medium and immunostimulatory molecules. Activity was measured using a plate reader at 620-655 nm wavelength.

human TLR8 = biological target: T2, human TLR8 (Homo sapiens, UniProt Q9NR97); assay: HEK293 NFKB reporter assay, human TLR8; type: cell-based; conditions: HEK293 NFKB reporter cells expressing human TLR8; read-out: HEK293 hTLR8 EC50
T2 construct: host or cells: HEK293 reporter cells
T2 sequence (Q9NR97 27-1041): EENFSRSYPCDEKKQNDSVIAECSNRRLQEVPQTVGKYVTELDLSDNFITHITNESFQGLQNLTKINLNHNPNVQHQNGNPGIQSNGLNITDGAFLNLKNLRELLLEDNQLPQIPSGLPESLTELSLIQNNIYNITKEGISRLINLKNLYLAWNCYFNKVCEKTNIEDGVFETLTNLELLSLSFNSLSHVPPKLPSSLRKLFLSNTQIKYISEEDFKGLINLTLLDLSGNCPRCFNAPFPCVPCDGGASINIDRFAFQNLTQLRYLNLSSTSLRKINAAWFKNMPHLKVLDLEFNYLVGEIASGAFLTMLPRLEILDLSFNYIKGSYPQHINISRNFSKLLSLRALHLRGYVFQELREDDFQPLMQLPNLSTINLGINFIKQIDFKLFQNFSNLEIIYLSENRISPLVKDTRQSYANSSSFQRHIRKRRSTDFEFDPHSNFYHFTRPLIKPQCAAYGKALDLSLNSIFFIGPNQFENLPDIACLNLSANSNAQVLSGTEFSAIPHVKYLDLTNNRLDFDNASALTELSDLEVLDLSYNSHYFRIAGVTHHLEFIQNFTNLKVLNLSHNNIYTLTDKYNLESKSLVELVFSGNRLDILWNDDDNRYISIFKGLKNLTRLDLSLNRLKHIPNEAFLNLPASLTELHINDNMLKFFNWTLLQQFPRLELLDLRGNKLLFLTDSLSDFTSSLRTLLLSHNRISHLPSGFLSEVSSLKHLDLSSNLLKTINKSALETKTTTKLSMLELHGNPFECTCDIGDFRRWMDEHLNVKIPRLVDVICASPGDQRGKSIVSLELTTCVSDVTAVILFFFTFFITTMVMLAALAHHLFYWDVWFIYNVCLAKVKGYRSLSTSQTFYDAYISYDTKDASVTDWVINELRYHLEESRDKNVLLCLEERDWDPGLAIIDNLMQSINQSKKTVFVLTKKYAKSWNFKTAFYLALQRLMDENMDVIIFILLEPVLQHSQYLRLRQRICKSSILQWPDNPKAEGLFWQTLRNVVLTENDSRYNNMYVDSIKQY
Procedure: as §1, §2

Row | Structure (SMILES) | EC50 (human TLR7) [µM] | EC50 (human TLR8) [nM]
1 | CCCN(OCC)C(=O)C1=Cc2sc(-c3cn[nH]c3)cc2N=C(N)C1 [TAZ-221] | 6.12 | 6700
2 | CCCN(OCC)C(=O)C1=Cc2sc(CN3CC4CCC(C3)N4)cc2N=C(N)C1 [TAZ-245] | 5.02 | 145
3 | CCCN(NCC)C(=O)C1=Cc2sccc2N=C(N)C1 [TAZ-85] | > 9 | 4030
4 | CCCN(CCC)C(=O)C1=Cc2sc(CCCCCN(C)C)cc2N=C(N)C1 [TAZ-102] | 0.793 | 384
5 | CCCN(OCC)C(=O)C1=Cc2sc(CC3CCNCC3)cc2N=C(N)C1 [TAZ-178] | 0.714 | 124
6 | CCCN(Cc1ccc(CO)cc1)C(=O)C1=Cc2sccc2N=C(N)C1 [TAZ-96] | 2.96 | 326
7 | CCCN(OCC)C(=O)C1=Cc2sc(CN3CCNC(=O)C3)cc2N=C(N)C1 [TAZ-224] | 3.41 | 2720
8 | CCCN(C(=O)C1=Cc2sc(CCCCCN)cc2N=C(N)C1)C1CC1 [TAZ-122] | 3.35 | 3240
9 | CCCN(OCC)C(=O)C1=Cc2sc(CN3CC(C(=O)OC(C)(C)C)C3)cc2N=C(N)C1 [TAZ-212] | 1.27 | 2540
10 | CCCN(CCCNC(=O)OC(C)(C)C)C(=O)C1=Cc2sccc2N=C(N)C1 [TAZ-8, tert-butyl N-[3-[(5-amino-6H-thieno[3,2-b]azepine-7-carbonyl)-propyl-amino]propyl]carbamate] | 0.589 | 1530
11 | CCCN(CCC)C(=O)C1=Cc2sc(CC(=O)OC)cc2N=C(N)C1 [TAZ-134] | 4.7 | 3420
12 | CCCN(CCC)C(=O)C1=Cc2sc(COCCNC(=O)OC(C)(C)C)cc2N=C(N)C1 [TAZ-80] | 4 | 3790
13 | CCCN(CCCNC(=O)OC1CCC1)C(=O)C1=Cc2sc(C#CC3CNC3)cc2N=C(N)C1 [TAZ-192] | 0.824 | 3480
14 | CCCN(OCC)C(=O)C1=Cc2sc(CC3CN(C(=O)OC(C)(C)C)C3)cc2N=C(N)C1 [TAZ-184] | 0.922 | 930
15 | CCCN(Cc1cnc(CNC(=O)OC(C)(C)C)cn1)C(=O)C1=Cc2sccc2N=C(N)C1 [TAZ-57] | 1.05 | 3850
16 | CCCN(OCC)C(=O)C1=Cc2sc(CCC3CCN(C(=O)OC(C)(C)C)CC3)cc2N=C(N)C1 [TAZ-175] | 4.18 | 474
17 | CCCN(CC12CC(CN(C)C)(C1)C2)C(=O)C1=Cc2sccc2N=C(N)C1 [TAZ-47] | > 9 | > 9000
18 | CCCN(CCCNC(=O)OC1CCC1)C(=O)C1=Cc2sc(CC3CN(C(=O)OC(C)(C)C)C3)cc2N=C(N)C1 [TAZ-182] | 0.101 | 840
19 | CCCN(CCCNC(=O)OC1CCC1)C(=O)C1=Cc2sc(CN3Cc4ccc(NC(=O)CCN)cc4C3)cc2N=C(N)C1 [TAZ-189] | 5.72 | 3390
20 | CCCN(CCCNC(=O)OC1CCC1)C(=O)C1=Cc2sc(CN3CCC(Nc4ccc(CN)cc4)C3)cc2N=C(N)C1 (stereo not drawn) [TAZ-190] | 2.99 | 4800
21 | CCCN(OCC)C(=O)C1=Cc2sc(C#CC3CNC3)cc2N=C(N)C1 [TAZ-193] | 3.36 | 1520

Row | Structure (SMILES) | EC50 (human TLR7) [µM] | EC50 (human TLR8) [nM]
22 | CCCN(OCC)C(=O)C1=Cc2sc(CCC3(O)CN(C(=O)OC(C)(C)C)C3)cc2N=C(N)C1 [TAZ-199] | 0.031 | 1610
23 | CCCN(OCC)C(=O)C1=Cc2sc(CN3CC4(C3)CN(C(=O)OC(C)(C)C)C4)cc2N=C(N)C1 [TAZ-208] | 3.61 | 8510
24 | CCCN(CCc1ccc(OC)cc1)C(=O)C1=Cc2sccc2N=C(N)C1 [TAZ-83] | 3.52 | 3370
25 | CCCN(CCCNC(=O)C(C)(C)C)C(=O)C1=Cc2sc(CCCCCNC(=O)OC(C)(C)C)cc2N=C(N)C1 [TAZ-141] | 0.38 | 3580
26 | CCCN(OCC)C(=O)C1=Cc2sc(CN3CCCN(C(=O)OC(C)(C)C)CC3)cc2N=C(N)C1 [TAZ-226] | 0.436 | 4430
27 | CCCN(OCC)C(=O)C1=Cc2sc(CN3CCC[C@@H](C(=O)OC)C3)cc2N=C(N)C1 [TAZ-223] | 3.8 | 3140
28 | CCCN(CCC)C(=O)C1=Cc2sc(CN3CCNCC3)cc2N=C(N)C1 [TAZ-44] | 4.53 | 593
29 | CCCN(CC1CCC1)C(=O)C1=Cc2sc(CCCCCN)cc2N=C(N)C1 [TAZ-126] | 0.95 | 633
30 | CCCN(OCC)C(=O)C1=Cc2sc(CCCCCNC(=O)OC(C)(C)C)cc2N=C(N)C1 [TAZ-75] | 5.08 | 2030
31 | CCCN(Cc1ccccc1)C(=O)C1=Cc2sccc2N=C(N)C1 [TAZ-39] | > 9 | > 9000
32 | CCCN(CCC)C(=O)C1=Cc2sc(CCCCN)cc2N=C(N)C1 [TAZ-38] | 4.15 | 3750
33 | CCCN(CCCNC(=O)OC1CCC1)C(=O)C1=Cc2sc(-c3cn[nH]c3)cc2N=C(N)C1 [TAZ-172] | 0.153 | 3700
34 | CCCN(CCCNC(=O)OC1CCC1)C(=O)C1=Cc2sc(CCC3CCNCC3)cc2N=C(N)C1 [TAZ-166] | 0.802 | 3700
35 | CCCN(CCC)C(=O)C1=Cc2sc(CCCCCNC(=O)CCOC)cc2N=C(N)C1 [TAZ-108] | 3.85 | 3470
36 | CCCN(CCCNC(=O)OC1CCC1)C(=O)C1=Cc2sc(CNC(=O)Cc3ccccc3)cc2N=C(N)C1 [TAZ-204] | 2.67 | 2550
37 | CCCN(OCC)C(=O)C1=Cc2sc(CN3CC4(C3)CN(c3ccc(C)cc3)C4)cc2N=C(N)C1 [TAZ-219] | 3.2 | 847
38 | CCCN(CCC)C(=O)C1=Cc2sc(C(=O)NCCCNC(=O)OC(C)(C)C)cc2N=C(N)C1 [TAZ-31] | > 9 | > 9000
39 | CCCN(OC(C)C)C(=O)C1=Cc2sc(CC3CNC3)cc2N=C(N)C1 [TAZ-253, 5-amino-2-(azetidin-3-ylmethyl)-N-isopropoxy-N-propyl-6H-thieno[3,2-b]azepine-7-carboxamide] | 7.17 | 192
40 | CCCN(Cc1cnc(CN)cn1)C(=O)C1=Cc2sccc2N=C(N)C1 [TAZ-62] | 8.32 | 178
41 | CCCN(Cc1ccc(CN(C)C)cc1)C(=O)C1=Cc2sc(CCCCCN)cc2N=C(N)C1 [TAZ-82] | 5 | 2870
42 | CCCN(OCC)C(=O)C1=Cc2sc(CN3Cc4ccc(NC(=O)CCNC(=O)OC(C)(C)C)cc4C3)cc2N=C(N)C1 [TAZ-202] | 3.68 | 1370
